This note sets out measurements from BindingDB's records for patent US20250388560 (Hitgen, 2025).

In the assay the target is E3 ubiquitin-protein ligase TRIM21 (UniProt P19474). The experiment in a line: Detection of SPR Binding Assays (Surface Plasmon Resonance Binding Assay) of TRIM21 Compounds. How it is done:
The protein fixation buffer, the running buffer A and the running buffer B were prepared and filtered through a […] membrane prior to use. TRIM21 Protein FixationThe running buffer A was used as the protein fixation buffer. The protein fixation buffer and the TRIM21 protein were mixed to prepare a 40.0 µg/mL mixed solution.

Sequence of E3 ubiquitin-protein ligase TRIM21 (P19474 whole entry): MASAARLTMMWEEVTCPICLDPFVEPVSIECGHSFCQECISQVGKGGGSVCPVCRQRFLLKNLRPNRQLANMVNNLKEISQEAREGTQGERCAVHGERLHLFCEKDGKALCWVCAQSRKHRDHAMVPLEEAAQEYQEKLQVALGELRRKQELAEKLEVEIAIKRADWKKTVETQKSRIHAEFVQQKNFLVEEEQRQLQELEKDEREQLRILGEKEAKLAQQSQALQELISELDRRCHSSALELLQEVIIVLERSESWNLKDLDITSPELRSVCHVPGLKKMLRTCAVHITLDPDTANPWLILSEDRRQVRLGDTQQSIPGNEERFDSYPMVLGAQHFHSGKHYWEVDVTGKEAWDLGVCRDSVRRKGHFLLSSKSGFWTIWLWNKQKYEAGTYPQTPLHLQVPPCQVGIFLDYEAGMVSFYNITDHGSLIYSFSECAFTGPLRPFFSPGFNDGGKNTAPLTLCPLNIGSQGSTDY

Regarding `CSc1ccccc1-c1ccc(C(=O)N(C)CCN2CCOCC2)c(S(C)(=O)=O)c1` [US20250388560, Compound 21], the Kd (usually a measure of binding affinity in units of concentration) was more than 10 µM.

`CSc1ccccc1-c1ccc(C(=O)N(C)CCN2CCCCC2)c(S(C)(=O)=O)c1` [US20250388560, Compound 22] came in with a Kd of more than 10 µM.

For `Cc1cccc(-c2ccc(C(=O)N(C)CC3CCCCC3)c(S(C)(=O)=O)c2)c1` [US20250388560, Compound 44], the Kd was more than 10 µM.

In the case of `CN(CC1CCCCC1)C(=O)c1ccc(-c2cccc3occc23)cc1S(C)(=O)=O` [US20250388560, Compound 48], the Kd is more than 10 µM.

For the compound `CN(CC1CCCCC1)C(=O)c1ccc(-c2cccc3[nH]ccc23)cc1S(C)(=O)=O` [US20250388560, Compound 50], the Kd was more than 10 µM.

`CN(CC1CCCCC1)C(=O)c1ccc(-c2cccc3cc[nH]c23)cc1S(C)(=O)=O` [US20250388560, Compound 51]: the Kd is more than 10 µM.

As to `CSc1cc(F)ccc1-c1ccc(C(=O)N(C)CC2CCOCC2)c(S(C)(=O)=O)c1` [US20250388560, Compound 55], the Kd is less than 0.01 µM.

The compound `CSc1cc(F)ccc1-c1ccc(C(=O)N(C)Cc2cc[nH]c(=O)c2)c(S(C)(=O)=O)c1` [US20250388560, Compound 56] came in with a Kd of less than 0.01 µM.

`COc1cc(F)ccc1-c1ccc(C(=O)N(C)Cc2cc[nH]c(=O)c2)c(S(C)(=O)=O)c1` [US20250388560, Compound 57] came in with a Kd of less than 0.01 µM.

With `CN(CC1CCCCC1)C(=O)c1ccc(-c2ccccc2)cc1S(C)(=O)=O` [US20250388560, Compound 58], the Kd is more than 10 µM.
